Reference: US8592407B2, “Pyrrolo[2,1-c][1,4] benzodiazepine derivatives with dithiocarbamate side chains and process for the preparation thereof” (Council of Scientific & Industrial Research, priority 2008, dated 2013)

Key:
Leukemia panel = experiment: NCI screen, panel average; type: cell-based, human; conditions: for LC50 (50% lethal concentration): Homo sapiens, read-out: Log10 LC50 (concentration in mol/L causing 50% lethality) (converted); for Log10 GI50 (concentration in mol/L): Leukemia, average of six to eight cell lines
[1] = system: Non-small-cell-lung panel; experiment: NCI screen, panel average; type: cell-based, human; conditions: for LC50: Homo sapiens, read-out: Log10 LC50 (concentration in mol/L causing 50% lethality) (converted); for Log10 GI50 (concentration in mol/L): Non-small-cell-lung, average of six to eight cell lines
CNS panel = experiment: NCI screen, panel average; type: cell-based, human; conditions: for Log10 GI50 (concentration in mol/L): CNS, average of six to eight cell lines; for LC50: Homo sapiens, read-out: Log10 LC50 (concentration in mol/L causing 50% lethality) (converted)
Ovarian panel = experiment: NCI screen, panel average; type: cell-based, human; conditions: for LC50 (50% lethal concentration): Homo sapiens, read-out: Log10 LC50 (concentration in mol/L causing 50% lethality) (converted); for Log10 GI50 (concentration in mol/L): Ovarian, average of six to eight cell lines
Renal panel = experiment: NCI screen, panel average; type: cell-based, human; conditions: for LC50 (concentration causing 50% lethality): Homo sapiens, read-out: Log10 LC50 (concentration in mol/L causing 50% lethality) (converted); for Log10 GI50 (concentration in mol/L): Renal, average of six to eight cell lines
K-562 = experiment: NCI in vitro cytotoxicity (SRB); type: cell-based; conditions: Homo sapiens, K562; Leukemia K-562; 48 h exposure
MOLT-4 = experiment: NCI in vitro cytotoxicity (SRB); type: cell-based; conditions: Homo sapiens
SR = experiment: NCI in vitro cytotoxicity (SRB); type: cell-based; conditions: Homo sapiens
A549/ATCC = experiment: NCI in vitro cytotoxicity (SRB); type: cell-based; conditions: Homo sapiens; Non-smallcell lung A549/ATCC; 48 h exposure
EKVX = experiment: NCI in vitro cytotoxicity (SRB); type: cell-based; conditions: Homo sapiens; Non-smallcell lung EKVX; 48 h exposure
HOP-92 = experiment: NCI in vitro cytotoxicity (SRB); type: cell-based; conditions: Homo sapiens; Non-smallcell lung HOP-92; 48 h exposure
NCI-H322M = experiment: NCI in vitro cytotoxicity (SRB); type: cell-based; conditions: Homo sapiens; Non-smallcell lung NCI-H322M; 48 h exposure
NCI-H522 = experiment: NCI in vitro cytotoxicity (SRB); type: cell-based; conditions: Homo sapiens
COLO 205 = experiment: NCI in vitro cytotoxicity (SRB); type: cell-based; conditions: Homo sapiens; Colon COLO 205; 48 h exposure
HCC-2998 = experiment: NCI in vitro cytotoxicity (SRB); type: cell-based; conditions: Homo sapiens; Colon HCC-2998; 48 h exposure
HCT-116 = experiment: NCI in vitro cytotoxicity (SRB); type: cell-based; conditions: Homo sapiens
SF-268 = experiment: NCI in vitro cytotoxicity (SRB); type: cell-based; conditions: Homo sapiens
SF-539 = experiment: NCI in vitro cytotoxicity (SRB); type: cell-based; conditions: Homo sapiens; CNS SF-539; 48 h exposure
SNB-75 = experiment: NCI in vitro cytotoxicity (SRB); type: cell-based; conditions: Homo sapiens; CNS SNB-75; 48 h exposure
U251 = experiment: NCI in vitro cytotoxicity (SRB); type: cell-based; conditions: Homo sapiens, U-251; CNS U251; 48 h exposure
LOX IMVI = experiment: NCI in vitro cytotoxicity (SRB); type: cell-based; conditions: Homo sapiens
MALME-3M = experiment: NCI in vitro cytotoxicity (SRB); type: cell-based; conditions: Homo sapiens
M14 = experiment: NCI in vitro cytotoxicity (SRB); type: cell-based; conditions: Homo sapiens; Melanoma M14; 48 h exposure
IGROV1 = experiment: NCI in vitro cytotoxicity (SRB); type: cell-based; conditions: Homo sapiens, IGROV-1
OVCAR-3 = experiment: NCI in vitro cytotoxicity (SRB); type: cell-based; conditions: Homo sapiens
OVCAR-4 = experiment: NCI in vitro cytotoxicity (SRB); type: cell-based; conditions: Homo sapiens; Ovarian OVCAR-4; 48 h exposure
OVCAR-8 = experiment: NCI in vitro cytotoxicity (SRB); type: cell-based; conditions: Homo sapiens
A498 = experiment: NCI in vitro cytotoxicity (SRB); type: cell-based; conditions: Homo sapiens; Renal A498; 48 h exposure
ACHN = experiment: NCI in vitro cytotoxicity (SRB); type: cell-based; conditions: Homo sapiens; Renal ACHN; 48 h exposure
CAKI-1 = experiment: NCI in vitro cytotoxicity (SRB); type: cell-based; conditions: Homo sapiens; Renal CAKI-1; 48 h exposure
UO-31 = experiment: NCI in vitro cytotoxicity (SRB); type: cell-based; conditions: Homo sapiens; Renal UO-31; 48 h exposure
MDA-MB- = experiment: NCI in vitro cytotoxicity (SRB); type: cell-based; conditions: Homo sapiens; Breast MDA-MB-; 48 h exposure
HS 578T = experiment: NCI in vitro cytotoxicity (SRB); type: cell-based; conditions: Homo sapiens; Breast HS 578T; 48 h exposure
BT-549 = experiment: NCI in vitro cytotoxicity (SRB); type: cell-based; conditions: Homo sapiens; Breast BT-549; 48 h exposure
T-47D = experiment: NCI in vitro cytotoxicity (SRB); type: cell-based; conditions: Homo sapiens, T47D; Breast T-47D; 48 h exposure
MDA-MB-468 = experiment: NCI in vitro cytotoxicity (SRB); type: cell-based; conditions: Homo sapiens
DU-145 = experiment: NCI in vitro cytotoxicity (SRB); type: cell-based; conditions: Homo sapiens
[2] = system: sixty human tumour cell lines; conditions: mean over human tumour cell lines
Description: For each compound, dose response curves for each cell line were measured at a minimum of five concentrations at 10 fold dilutions. A protocol of 48 h continuous drug exposure was used and a sulforhodamine B (SRB) protein assay was used to estimate cell viability or growth. The concentration causing 50% cell growth inhibition (G150), total cell growth inhibition (TGI 0% growth) and 50% cell death (LC50, −50% growth) compared with the control was calculated.

[3] = Non-smallcell lung NCI-H522, 48 h exposure
[4] = Melanoma LOX IMVI, 48 h exposure
[5] = Melanoma MALME-3M, 48 h exposure
[6] = Breast MDA-MB-468, 48 h exposure

COc1cc2c(cc1OCCCN1CCN(C(=S)SCCC(C#N)(c3ccccc3)c3ccccc3)CC1)N=C[C@@H]1CCCN1C2=O [Compound 12b, 3-cyano-3,3-diphenylpropyl 4-(3-[(11aS)-7-(methyloxy)-5-oxo-2,3,5,11a-tetrahydro-1H-benzo[e]pyrrolo[1,2-a][1,4]diazepin-8-yl]oxypropyl)hexahydro-1-pyrazinecarbodithioate]
LC50 (50% lethal concentration) (Leukemia panel): 55 µM
Log10 GI50 (concentration in mol/L) (Leukemia panel): −6.63 mol/L
LC50 [1]: 11 µM
Log10 GI50 (concentration in mol/L) [1]: −6.07 mol/L
Log10 GI50 (concentration in mol/L) (CNS panel): −6.12 mol/L
LC50 (CNS panel): 4.47 µM
LC50 (50% lethal concentration) (Ovarian panel): 18.6 µM
Log10 GI50 (concentration in mol/L) (Ovarian panel): −6.03 mol/L
LC50 (concentration causing 50% lethality) (Renal panel): 4.07 µM
Log10 GI50 (concentration in mol/L) (Renal panel): −6.20 mol/L
GI50 (K-562): 0.26 µM
GI50 (MOLT-4; Leukemia MOLT-4, 48 h exposure): 0.22 µM
GI50 (MOLT-4; leukemia MOLT-4): 0.22 µM
GI50 (SR; Leukemia SR, 48 h exposure): 0.18 µM
GI50 (SR; leukemia SR): 0.18 µM
GI50 (A549/ATCC): 1.22 µM
GI50 (EKVX): 2.29 µM
GI50 (HOP-92): 1.07 µM
GI50 (NCI-H322M): 1.87 µM
GI50 (NCI-H522; [3]): 0.17 µM
GI50 (NCI-H522; non-small cell lung NCI-H522): 0.17 µM
GI50 (COLO 205): 1.3 µM
GI50 (HCC-2998): 1.64 µM
GI50 (HCT-116; Colon HCT-116, 48 h exposure): 0.38 µM
GI50 (HCT-116; colon cancer HCT-116): 0.38 µM
GI50 (SF-268; SF-268, CNS SF268): 0.28 µM
GI50 (SF-268; CNS SF-268, 48 h exposure): 0.28 µM
GI50 (SF-539): 1.44 µM
GI50 (SNB-75): 1.26 µM
GI50 (U251): 0.39 µM
GI50 (LOX IMVI; [4]): 0.6 µM
GI50 (LOX IMVI; melanoma LOX IMVI): 0.6 µM
GI50 (MALME-3M; [5]): 0.93 µM
GI50 (MALME-3M; melanoma MALME-3M): 0.93 µM
GI50 (M14): 1.17 µM
GI50 (IGROV1; Ovarian IGROV1, 48 h exposure): 0.3 µM
GI50 (IGROV1; ovarian IGROV1): 0.3 µM
GI50 (OVCAR-3; Ovarian OVCAR-3, 48 h exposure): 0.28 µM
GI50 (OVCAR-3; ovarian OVCAR-3): 0.28 µM
GI50 (OVCAR-4): 2.11 µM
GI50 (OVCAR-8; Ovarian OVCAR-8, 48 h exposure): 0.99 µM
GI50 (OVCAR-8; ovarian OVCAR-8): 0.99 µM
GI50 (A498): 0.91 µM
GI50 (ACHN): 0.94 µM
GI50 (CAKI-1): 0.3 µM
GI50 (UO-31): 1.1 µM
GI50 (MDA-MB-): 1.41 µM
GI50 (HS 578T): 0.56 µM
GI50 (BT-549): 0.92 µM
GI50 (T-47D): 0.57 µM
GI50 (MDA-MB-468; MDA-MB-468, breast MDA-MEI-468): 0.28 µM
GI50 (MDA-MB-468; [6]): 0.28 µM
GI50 (DU-145; Prostate DU-145, 48 h exposure): 0.26 µM
GI50 (DU-145; prostate DU-145): 0.26 µM
Log10GI50 mean graph midpoint (MG_MID) [2]: −6.15
Log10LC50 mean graph midpoint (MG_MID) [2]: −4.96
Log10TGI mean graph midpoint (MG_MID) [2]: −5.67

COc1cc2c(cc1OCCCCN1CCN(C(=S)SCCC(C#N)(c3ccccc3)c3ccccc3)CC1)N=C[C@@H]1CCCN1C2=O [Compound 12c, 3-cyano-3,3-diphenylpropyl 4-(4-[(11aS)-7-(methyloxy)-5-oxo-2,3,5,11a-tetrahydro-1H-benzo[e]pyrrolo[1,2-a][1,4]diazepin-8-yl]oxybutyl)hexahydro-1-pyrazinecarbodithioate]
LC50 (50% lethal concentration) (Leukemia panel): 100 µM
Log10 GI50 (concentration in mol/L) (Leukemia panel): −6.26 mol/L
LC50 [1]: 38.9 µM
Log10 GI50 (concentration in mol/L) [1]: −5.97 mol/L
Log10 GI50 (concentration in mol/L) (CNS panel): −5.84 mol/L
LC50 (CNS panel): 7.59 µM
LC50 (50% lethal concentration) (Ovarian panel): 55 µM
Log10 GI50 (concentration in mol/L) (Ovarian panel): −5.82 mol/L
LC50 (concentration causing 50% lethality) (Renal panel): 15.1 µM
Log10 GI50 (concentration in mol/L) (Renal panel): −6.05 mol/L
GI50 (K-562): 3.29 µM
GI50 (MOLT-4; Leukemia MOLT-4, 48 h exposure): 0.35 µM
GI50 (SR; Leukemia SR, 48 h exposure): 0.25 µM
GI50 (A549/ATCC): 1.61 µM
GI50 (EKVX): 1.88 µM
GI50 (HOP-92): 1.07 µM
GI50 (NCI-H322M): 1.4 µM
GI50 (NCI-H522; [3]): 0.19 µM
GI50 (COLO 205): 1.4 µM
GI50 (HCC-2998): 1.57 µM
GI50 (HCT-116; Colon HCT-116, 48 h exposure): 0.54 µM
GI50 (SF-268; CNS SF-268, 48 h exposure): 1.23 µM
GI50 (SF-539): 1.69 µM
GI50 (SNB-75): 1.64 µM
GI50 (U251): 1.11 µM
GI50 (LOX IMVI; [4]): 0.69 µM
GI50 (MALME-3M; [5]): 1.36 µM
GI50 (M14): 1.25 µM
GI50 (IGROV1; Ovarian IGROV1, 48 h exposure): 0.42 µM
GI50 (OVCAR-3; Ovarian OVCAR-3, 48 h exposure): 1.2 µM
GI50 (OVCAR-4): 1.82 µM
GI50 (OVCAR-8; Ovarian OVCAR-8, 48 h exposure): 1.59 µM
GI50 (A498): 1.19 µM
GI50 (ACHN): 1.16 µM
GI50 (CAKI-1): 0.59 µM
GI50 (UO-31): 0.59 µM
GI50 (MDA-MB-): 1.53 µM
GI50 (HS 578T): 0.72 µM
GI50 (BT-549): 1.42 µM
GI50 (T-47D): 0.57 µM
GI50 (MDA-MB-468; [6]): 0.49 µM
GI50 (DU-145; Prostate DU-145, 48 h exposure): 1.47 µM
Log10GI50 mean graph midpoint (MG_MID) [2]: −5.98
Log10LC50 mean graph midpoint (MG_MID) [2]: −4.48
Log10TGI mean graph midpoint (MG_MID) [2]: −5.28
